This passage reports IC50 results from patent US20250179103A1, “6-OXODECAHYDROPYRROLO[1,2-A][1,5]DIAZOCINE AND 6-OXODECAHYDRO-4H-PYRROLO[2,1-D][1,5]THIAZOCINE DERIVATIVES AS STAT3 AND STAT6 MODULATORS FOR THE TREATMENT OF CANCER AND INFLAMMATORY CONDITIONS” (Recludix Pharma, Inc., priority 2022, published 2025).

For assay [1], the target named is T1, Recombinant STAT6 protein (STAT6(W123-T658)) (Homo sapiens, UniProt P42226).
T1 construct: Recombinant STAT6 protein (STAT6(W123-T658))
T1 sequence (P42226 123-658): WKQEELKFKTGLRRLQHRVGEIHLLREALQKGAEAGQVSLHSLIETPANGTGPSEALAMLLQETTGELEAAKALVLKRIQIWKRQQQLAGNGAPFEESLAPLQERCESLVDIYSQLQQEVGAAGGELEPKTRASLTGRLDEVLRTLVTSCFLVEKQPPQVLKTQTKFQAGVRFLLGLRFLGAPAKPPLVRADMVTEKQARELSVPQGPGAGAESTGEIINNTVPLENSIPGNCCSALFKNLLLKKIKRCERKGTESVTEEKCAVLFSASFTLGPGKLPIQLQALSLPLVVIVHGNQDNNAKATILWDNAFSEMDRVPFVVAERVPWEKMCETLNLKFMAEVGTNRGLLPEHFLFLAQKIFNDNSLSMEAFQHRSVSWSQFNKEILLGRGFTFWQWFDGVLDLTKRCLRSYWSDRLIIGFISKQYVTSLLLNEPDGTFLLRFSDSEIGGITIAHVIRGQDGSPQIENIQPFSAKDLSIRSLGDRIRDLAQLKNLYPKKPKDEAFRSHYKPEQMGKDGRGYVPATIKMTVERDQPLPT
The assay can be described thus: STAT6 Fluorescence Polarization (FP) Assay. It is filed as binding. As to conditions: STAT6(W123-T658) 250 nM, probe 5-FAM-ApYKPFQDLI-NH2 2 nM, 45-minute incubation. As for the experimental part:
STAT6 Fluorescence Polarization (FP) Assay
An FP assay was developed to determine IC50 values for test substances. Recombinant STAT6 protein (STAT6(W123-T658)) at 250 nM was combined with a fluorescently labeled, phosphotyrosine peptide probe (5-FAM-ApYKPFQDLI-NH2) at 2 nM in FP buffer (10 mM HEPES pH 7.4, 50 mM NaCl, 1 mM EDTA, 0.05% Tween 20.2 mM DTT). 50 μL of STAT6-probe mixture was added to serial diluted compounds in black, 96-well plates (Greiner BioOne 655076) to a final concentration of 1% DMSO. Reaction components were mixed, and FP was measured after 45-minute incubation at room temperature using a Tecan Spark multimode plate reader. FP signal (mP) was plotted against the log concentration of the test substances and IC50 values were calculated by nonlinear regression analysis using GraphPad Prism software. For STAT6 FP assay, A=≤300 nM; B=>300-3000 nM; C=>3-30 μM; and D=>30 μM.

The target in assay [2] is T2, Recombinant STAT3 protein (STAT3(G127-I722)) (Homo sapiens, UniProt P40763).
T2 construct: Recombinant STAT3 protein (STAT3(G127-I722))
The assay can be described thus: STAT3 Fluorescence Polarization (FP) Assay. It is filed as binding. As to conditions: STAT3(G127-I722) 25 nM, probe 5-FAM-GpYLPQTV-NH2 2 nM, 45-minute incubation. As for the experimental part:
STAT3 Fluorescence Polarization (FP) Assay
An FP assay was developed to determine IC50 values for test substances. Recombinant STAT3 protein (STAT3(G127-I722)) at 25 nM was combined with a fluorescently labeled, phosphotyrosine peptide probe (5-FAM-GpYLPQTV-NH2) at 2 nM in FP buffer (10 mM HEPES pH 7.4, 50 mM NaCl, 1 mM EDTA, 0.05% Tween 20.2 mM DTT). 50 μL of STAT3-probe mixture was added to serial diluted compounds in black, 96-well plates (Greiner BioOne 655076) to a final concentration of 1% DMSO. Reaction components were mixed, and FP was measured after 45-minute incubation at room temperature using a Tecan Spark multimode plate reader. FP signal (mP) was plotted against the log concentration of the test substances and IC50 values were calculated by nonlinear regression analysis using GraphPad Prism software. For STAT3 FP assay, A=≤100 nM; B=>100-1000 nM; C=>1-10 μM; and D=>10 μM.

Molecules are shown by their SMILES. pIC50: −log10 of the molar value.

T2 sequence (P40763 127-722): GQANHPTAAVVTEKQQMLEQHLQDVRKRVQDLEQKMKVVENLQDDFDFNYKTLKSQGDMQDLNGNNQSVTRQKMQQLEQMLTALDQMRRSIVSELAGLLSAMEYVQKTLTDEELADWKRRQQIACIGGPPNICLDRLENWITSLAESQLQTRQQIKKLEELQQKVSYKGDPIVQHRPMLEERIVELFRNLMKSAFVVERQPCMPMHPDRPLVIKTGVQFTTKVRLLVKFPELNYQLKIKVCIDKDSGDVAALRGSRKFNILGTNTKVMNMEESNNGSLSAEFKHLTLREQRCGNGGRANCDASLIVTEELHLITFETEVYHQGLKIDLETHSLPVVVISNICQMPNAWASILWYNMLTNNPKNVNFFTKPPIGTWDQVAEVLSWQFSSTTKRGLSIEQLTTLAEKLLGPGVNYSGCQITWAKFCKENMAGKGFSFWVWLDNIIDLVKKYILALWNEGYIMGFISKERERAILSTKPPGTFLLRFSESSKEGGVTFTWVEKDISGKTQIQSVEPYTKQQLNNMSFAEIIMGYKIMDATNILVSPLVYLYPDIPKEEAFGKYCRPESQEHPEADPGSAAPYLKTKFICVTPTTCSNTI

Regarding `CC(=O)N1CC[C@H]2CC[C@@H](C(=O)N3CC(c4cc(F)cc(F)c4)[C@@H](C#N)C3)N2C(=O)[C@@H](NC(=O)c2cc3cc(C(F)(F)P(=O)(O)O)ccc3s2)C1` (relative stereo) [Compound 142, ((2-(((5S,8S,10aR)-3-acetyl-8-((rel-trans)-3-cyano-4-(3,5-difluorophenyl)pyrrolidine-1-carbonyl)-6-oxodecahydropyrrolo[1,2-a][1,5]diazocin-5-yl)carbamoyl)benzo[b]thiophen-5-yl)difluoromethyl)phosphonic acid], the values for the pIC50 in assay [1] and in assay [2] were no less than 6.52 and 5.00 to 6.00, respectively.
For the compound `CC(=O)N1CC[C@H]2CC[C@@H](C(=O)N3CC(c4ccccc4)[C@@H](c4ccccc4)C3)N2C(=O)[C@@H](NC(=O)c2cc3cc(C(F)(F)P(=O)(O)O)ccc3s2)C1` (relative stereo) [Compound 143, ((2-(((5S,8S,10aR)-3-acetyl-8-((rel-trans)-3,4-diphenylpyrrolidine-1-carbonyl)-6-oxodecahydropyrrolo[1,2-a][1,5]diazocin-5-yl)carbamoyl)benzo[b]thiophen-5-yl)difluoromethyl)phosphonic acid], the pIC50 in assay [1] was no less than 6.52; in assay [2], 5.00 to 6.00.
Regarding `COc1ccccc1C1CN(C(=O)[C@@H]2CC[C@@H]3CCN(C(C)=O)C[C@H](NC(=O)c4cc5cc(C(F)(F)P(=O)(O)O)ccc5s4)C(=O)N32)C[C@@H]1C#N` (relative stereo) [Compound 144, ((2-(((5S,8S,10aR)-3-acetyl-8-((rel-trans)-3-cyano-4-(2-methoxyphenyl)pyrrolidine-1-carbonyl)-6-oxodecahydropyrrolo[1,2-a][1,5]diazocin-5-yl)carbamoyl)benzo[b]thiophen-5-yl)difluoromethyl)phosphonic acid], the negative-log IC50 (pIC50) in assay [1] is no less than 6.52; in assay [2] it was 5.00 to 6.00.
As for `CC(=O)N1CC[C@H]2CC[C@@H](C(=O)N3CC(c4cc[nH]c(=O)c4)[C@@H](C#N)C3)N2C(=O)[C@@H](NC(=O)c2cc3cc(C(F)(F)P(=O)(O)O)ccc3s2)C1` (relative stereo) [Compound 145, ((2-(((5S,8S,10aR)-3-acetyl-8-((rel-trans)-3-cyano-4-(2-oxo-1,2-dihydropyridin-4-yl)pyrrolidine-1-carbonyl)-6-oxodecahydropyrrolo[1,2-a][1,5]diazocin-5-yl)carbamoyl)benzo[b]thiophen-5-yl)difluoromethyl)phosphonic acid], the results for the pIC50 in assay [1] and in assay [2] were no less than 6.52 and 6.00 to 7.00, respectively.
As for `CC(=O)N1CC[C@H]2CC[C@@H](C(=O)N3CC(c4ccc(=O)[nH]c4)[C@@H](C#N)C3)N2C(=O)[C@@H](NC(=O)c2cc3cc(C(F)(F)P(=O)(O)O)ccc3s2)C1` (relative stereo) [Compound 146, ((2-(((5S,8S,10aR)-3-acetyl-8-((rel-trans)-3-cyano-4-(6-oxo-1,6-dihydropyridin-3-yl)pyrrolidine-1-carbonyl)-6-oxodecahydropyrrolo[1,2-a][1,5]diazocin-5-yl)carbamoyl)benzo[b]thiophen-5-yl)difluoromethyl)phosphonic acid], the pIC50 in assay [1] was 5.52 to 6.52; in assay [2], 6.00 to 7.00.
On to `COc1ccc(C2CN(C(=O)[C@@H]3CC[C@@H]4CCN(C(C)=O)C[C@H](NC(=O)c5cc6cc(C(F)(F)P(=O)(O)O)ccc6s5)C(=O)N43)C[C@@H]2C#N)cn1` (relative stereo) [Compound 147, ((2-(((5S,8S,10aR)-3-acetyl-8-((rel-trans)-3-cyano-4-(6-methoxypyridin-3-yl)pyrrolidine-1-carbonyl)-6-oxodecahydropyrrolo[1,2-a][1,5]diazocin-5-yl)carbamoyl)benzo[b]thiophen-5-yl)difluoromethyl)phosphonic acid], for which the figures for the pIC50 in assay [1] and in assay [2] were 5.52 to 6.52 and 6.00 to 7.00, respectively.
As for `COc1cc(C2CN(C(=O)[C@@H]3CC[C@@H]4CCN(C(C)=O)C[C@H](NC(=O)c5cc6cc(C(F)(F)P(=O)(O)O)ccc6s5)C(=O)N43)C[C@@H]2C#N)ccn1` (relative stereo) [Compound 148, ((2-(((5S,8S,10aR)-3-acetyl-8-((rel-trans)-3-cyano-4-(2-methoxypyridin-4-yl)pyrrolidine-1-carbonyl)-6-oxodecahydropyrrolo[1,2-a][1,5]diazocin-5-yl)carbamoyl)benzo[b]thiophen-5-yl)difluoromethyl)phosphonic acid], the results for the pIC50 in assay [1] and in assay [2] were 5.52 to 6.52 and 5.00 to 6.00, respectively.
In the case of `COc1cccc([C@@H]2CN(C(=O)[C@@H]3CC[C@@H]4CCN(C(C)=O)C[C@H](NC(=O)c5cc6cc(C(F)(F)P(=O)(O)O)ccc6s5)C(=O)N43)C[C@H]2C#N)c1` (relative stereo) [Compound 149, ((2-(((5S,8S,10aR)-3-acetyl-8-((rel-trans)-3-cyano-4-(3-methoxyphenyl)pyrrolidine-1-carbonyl)-6-oxodecahydropyrrolo[1,2-a][1,5]diazocin-5-yl)carbamoyl)benzo[b]thiophen-5-yl)difluoromethyl)phosphonic acid], the pIC50 in assay [1] is no less than 6.52; in assay [2] it was 5.00 to 6.00.
Turning to `CC(=O)N1CC[C@H]2CC[C@@H](C(=O)N3C[C@@H](C#N)[C@H](c4cccnc4)C3)N2C(=O)[C@@H](NC(=O)c2cc3cc(C(F)(F)P(=O)(O)O)ccc3s2)C1` (relative stereo) [Compound 150, ((2-(((5S,8S,10aR)-3-acetyl-8-((rel-trans)-3-cyano-4-(pyridin-3-yl)pyrrolidine-1-carbonyl)-6-oxodecahydropyrrolo[1,2-a][1,5]diazocin-5-yl)carbamoyl)benzo[b]thiophen-5-yl)difluoromethyl)phosphonic acid], the negative-log IC50 (pIC50) is no less than 6.52 in assay [1] and 6.00 to 7.00 in assay [2].
For `CC(=O)N1CC[C@H]2CC[C@@H](C(=O)N3C[C@@H](C#N)[C@H](C4CCCCC4)C3)N2C(=O)[C@@H](NC(=O)c2cc3cc(C(F)(F)P(=O)(O)O)ccc3s2)C1` (relative stereo) [Compound 151, ((2-(((5S,8S,10aR)-3-acetyl-8-((rel-trans)-3-cyano-4-cyclohexylpyrrolidine-1-carbonyl)-6-oxodecahydropyrrolo[1,2-a][1,5]diazocin-5-yl)carbamoyl)benzo[b]thiophen-5-yl)difluoromethyl)phosphonic acid], the pIC50 in assay [1] is 5.52 to 6.52; in assay [2], 5.00 to 6.00.
In the case of `CC(=O)N1CC[C@H]2CC[C@@H](C(=O)N3C[C@@H](C#N)[C@](C)(c4ccccc4)C3)N2C(=O)[C@@H](NC(=O)c2cc3cc(C(F)(F)P(=O)(O)O)ccc3s2)C1` (relative stereo) [Compound 152, ((2-(((5S,8S,10aR)-3-acetyl-8-((rel-trans)-4-cyano-3-methyl-3-phenylpyrrolidine-1-carbonyl)-6-oxodecahydropyrrolo[1,2-a][1,5]diazocin-5-yl)carbamoyl)benzo[b]thiophen-5-yl)difluoromethyl)phosphonic acid], the figures for the pIC50 in assay [1] and in assay [2] were no less than 6.52 and 5.00 to 6.00, respectively.
Take `CC(=O)N1CC[C@H]2CC[C@@H](C(=O)N3C[C@@H](C#N)C[C@H](c4ccccc4)C3)N2C(=O)[C@@H](NC(=O)c2cc3cc(C(F)(F)P(=O)(O)O)ccc3s2)C1` (relative stereo) [Compound 153, ((2-(((5S,8S,10aR)-3-acetyl-8-((rel-trans)-3-cyano-5-phenylpiperidine-1-carbonyl)-6-oxodecahydropyrrolo[1,2-a][1,5]diazocin-5-yl)carbamoyl)benzo[b]thiophen-5-yl)difluoromethyl)phosphonic acid]: the negative-log IC50 (pIC50) is 5.52 to 6.52 in assay [1] and 5.00 to 6.00 in assay [2].

Usually pIC50 stands for −log10 of the IC50, conventionally taken in molar units.
